The target of experiment [1] is T1, Fatty acid synthase (Homo sapiens, UniProt P49327). Nature of the experiment: FAS thioesterase domain inhibitors, dose response, biochemical, kinetic fluorescence intensity (AID 624326).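 Also: rate of fluorescence rise from hydrolysis of a fluorogenic O-methyl fluorescein ester substrate.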 The class given is functional.
In experiment [2] the target is T1, Fatty acid synthase. Nature of the experiment: FAS thioesterase domain inhibitors, dose response, biochemical, endpoint fluorescence intensity, uHTS hits (AID 624327).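 Also: fluorescence from hydrolysis of an O-methyl fluorescein acyl ester substrate by the enzyme.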 The class given is functional.
A further experiment addresses T2, Cytochrome P450 1A2 (Homo sapiens, UniProt P05177).
T2 sequence (P05177 whole entry): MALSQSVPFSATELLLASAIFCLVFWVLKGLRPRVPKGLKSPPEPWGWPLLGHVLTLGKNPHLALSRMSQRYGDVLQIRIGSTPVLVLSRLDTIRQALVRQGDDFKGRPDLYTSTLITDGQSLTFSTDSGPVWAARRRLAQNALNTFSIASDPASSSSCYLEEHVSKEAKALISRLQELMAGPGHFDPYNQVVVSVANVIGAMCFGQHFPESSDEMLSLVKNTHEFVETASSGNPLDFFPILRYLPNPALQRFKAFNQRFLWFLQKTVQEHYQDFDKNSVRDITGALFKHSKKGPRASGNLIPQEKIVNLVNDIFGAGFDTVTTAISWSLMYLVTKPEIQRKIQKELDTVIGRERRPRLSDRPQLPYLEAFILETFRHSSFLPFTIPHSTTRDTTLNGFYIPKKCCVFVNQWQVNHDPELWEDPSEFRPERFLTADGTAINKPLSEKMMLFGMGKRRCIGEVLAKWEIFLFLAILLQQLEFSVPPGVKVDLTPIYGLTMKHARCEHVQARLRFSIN

In experiment [3] the target is T3, Heat shock factor protein 1 (Mus musculus, UniProt P38532).
T3 sequence (P38532 whole entry): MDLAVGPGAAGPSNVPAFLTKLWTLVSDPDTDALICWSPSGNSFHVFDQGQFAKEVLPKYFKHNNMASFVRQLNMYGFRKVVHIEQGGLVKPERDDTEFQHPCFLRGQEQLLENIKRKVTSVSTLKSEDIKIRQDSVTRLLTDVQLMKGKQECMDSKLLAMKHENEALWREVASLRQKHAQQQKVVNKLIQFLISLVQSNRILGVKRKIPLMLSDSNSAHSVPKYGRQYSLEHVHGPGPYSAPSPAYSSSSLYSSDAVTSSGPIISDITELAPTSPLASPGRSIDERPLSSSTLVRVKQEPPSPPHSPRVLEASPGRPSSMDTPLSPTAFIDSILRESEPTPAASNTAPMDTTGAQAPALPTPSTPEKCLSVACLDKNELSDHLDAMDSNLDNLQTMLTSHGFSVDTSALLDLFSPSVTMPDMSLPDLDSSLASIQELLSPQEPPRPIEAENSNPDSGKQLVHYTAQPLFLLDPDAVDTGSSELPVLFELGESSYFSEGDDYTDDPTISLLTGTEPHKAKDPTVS
Kind of experiment: HSF1 potentiators in luciferase reporter cells, confirmation, cell-based, NIH3T3, luminescence, dose retest (AID 435004).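 Also: stress induced by proteasome inhibitor MG132 added 30 min after compound; luciferase reporter driven by HSF1 response element in NIH3T3 cells; actives raise luminescence as potentiators of the MG132 stress response.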 The class given is functional.

Experiment [4] can be described thus: Shn3 3'UTR reporter inhibitors, dose response, cell-based, Clone20 osteoblasts, firefly luciferase, cherry-picked (AID 624132).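 Also: firefly luciferase luminescence from reporter carrying the Shn3 3'UTR in osteoblasts.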 The class given is functional.
Experiment [5] in a line: HepG2 cell cytotoxicity, dose response, cytotoxicity control for Shn3 inhibitor project, CellTiter-Glo, cherry-picked (AID 624134). The class given is functional, cell-based. (In general: In ATP-based viability assays light output follows the ATP content of the culture.)
The nature of experiment [6]: control 3'UTR Renilla luciferase suppression, dose response, counter-screen for Shn3 inhibitor project, cell-based, Clone20-Shn3RL, cherry-picked (AID 624133). The format is functional.
Another experiment concerns the target T4, Protein RecA (Mycobacterium tuberculosis, UniProt P9WHJ3).
T4 sequence (P9WHJ3 whole entry): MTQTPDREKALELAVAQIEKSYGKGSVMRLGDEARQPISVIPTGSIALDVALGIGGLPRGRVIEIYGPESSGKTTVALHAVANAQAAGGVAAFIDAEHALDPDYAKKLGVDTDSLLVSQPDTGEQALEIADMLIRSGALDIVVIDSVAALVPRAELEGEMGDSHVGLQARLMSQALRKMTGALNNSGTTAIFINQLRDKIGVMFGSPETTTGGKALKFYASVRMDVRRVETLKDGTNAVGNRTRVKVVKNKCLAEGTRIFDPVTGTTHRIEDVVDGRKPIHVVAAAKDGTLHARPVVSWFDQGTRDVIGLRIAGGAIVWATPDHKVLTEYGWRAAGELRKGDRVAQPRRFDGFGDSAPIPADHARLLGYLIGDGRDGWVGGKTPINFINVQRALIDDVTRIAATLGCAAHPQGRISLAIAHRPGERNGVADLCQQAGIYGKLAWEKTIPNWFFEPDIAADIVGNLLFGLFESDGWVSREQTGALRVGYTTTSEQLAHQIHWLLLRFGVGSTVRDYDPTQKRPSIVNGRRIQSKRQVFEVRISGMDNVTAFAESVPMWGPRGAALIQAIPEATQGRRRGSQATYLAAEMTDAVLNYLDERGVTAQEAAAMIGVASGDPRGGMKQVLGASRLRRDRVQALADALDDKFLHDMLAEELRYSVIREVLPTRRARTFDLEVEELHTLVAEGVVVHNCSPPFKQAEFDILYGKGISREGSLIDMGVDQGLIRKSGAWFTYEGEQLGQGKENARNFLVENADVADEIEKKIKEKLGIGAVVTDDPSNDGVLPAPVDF
Kind of experiment: Fluorescence Cell-Free Homogeneous Dose Retest to Identify Inhibitors of RecA-Intein Splicing Activity. [Related pubchem assays (depositor defined):AID2097, AID2223, AID489010, AID492950]. The class given is functional.

For experiment [7], the target named is T5, Replicative DNA helicase DnaB (Mycobacterium tuberculosis, UniProt P9WMR3).
T5 sequence (P9WMR3 whole entry): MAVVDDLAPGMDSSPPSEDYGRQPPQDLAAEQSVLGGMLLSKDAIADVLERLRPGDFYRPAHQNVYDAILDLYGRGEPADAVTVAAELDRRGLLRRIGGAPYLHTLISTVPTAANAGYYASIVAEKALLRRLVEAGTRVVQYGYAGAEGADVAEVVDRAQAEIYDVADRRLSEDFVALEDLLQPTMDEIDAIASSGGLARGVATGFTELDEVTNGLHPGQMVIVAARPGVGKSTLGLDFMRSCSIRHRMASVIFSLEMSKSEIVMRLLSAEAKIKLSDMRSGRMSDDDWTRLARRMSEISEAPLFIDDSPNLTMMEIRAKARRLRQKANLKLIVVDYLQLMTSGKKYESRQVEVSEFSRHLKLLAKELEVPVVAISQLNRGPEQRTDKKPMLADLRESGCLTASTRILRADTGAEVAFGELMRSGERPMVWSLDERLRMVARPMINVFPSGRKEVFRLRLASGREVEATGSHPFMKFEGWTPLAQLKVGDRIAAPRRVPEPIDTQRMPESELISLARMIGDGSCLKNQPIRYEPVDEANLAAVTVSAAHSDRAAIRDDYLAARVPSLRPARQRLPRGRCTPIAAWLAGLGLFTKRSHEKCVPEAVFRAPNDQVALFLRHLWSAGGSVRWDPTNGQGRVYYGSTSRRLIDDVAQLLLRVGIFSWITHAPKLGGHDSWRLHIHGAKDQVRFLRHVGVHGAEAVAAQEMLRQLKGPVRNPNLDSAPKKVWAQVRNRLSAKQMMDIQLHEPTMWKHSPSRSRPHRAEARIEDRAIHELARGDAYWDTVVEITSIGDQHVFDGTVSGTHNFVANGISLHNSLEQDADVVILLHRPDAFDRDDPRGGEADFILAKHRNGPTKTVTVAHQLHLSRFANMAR
Kind of experiment: DnaB intein splicing inhibitors, dose response, biochemical, cell-free fluorescence (AID 449749). The class given is functional.

A short description of experiment [8]: HEp-2 cell cytotoxicity, dose response, cytotoxicity control for RSV inhibitor project, HTS (AID 2410). The conditions noted are these: human respiratory syncytial virus. The format is functional.
Experiment [9] can be described thus: growth suppression of PTEN-null colon cells, dose response, cell-based, HCT116 PTEN knockout (AID 1047).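 Also: HCT116 colon tumor cells with PTEN knocked out; cells exposed to compound for 60 hours before readout; potency for loss of cell viability measured by luminescence.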 The class given is functional.
Experiment [10] can be described thus: growth suppression of beta-catenin-knockout colon cells, dose response, cell-based, HCT116, human colon tumor (AID 1045).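 Also: HCT116 colon tumor cells with beta catenin knocked out; cells exposed to compound for 60 hours.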 The class given is functional.

Activity calls are given as the source filed them.

As a reminder, the IC50 is the point on the concentration scale where inhibition reaches its midpoint. In general, AC50 refers to the midpoint of the concentration-response curve, whichever way the signal moves. As a reminder, the EC50 is the concentration giving half of the maximal effect. By CC50 is commonly meant the concentration giving 50% cytotoxicity.

T1 sequence (P49327 whole entry, the tested form may be a part): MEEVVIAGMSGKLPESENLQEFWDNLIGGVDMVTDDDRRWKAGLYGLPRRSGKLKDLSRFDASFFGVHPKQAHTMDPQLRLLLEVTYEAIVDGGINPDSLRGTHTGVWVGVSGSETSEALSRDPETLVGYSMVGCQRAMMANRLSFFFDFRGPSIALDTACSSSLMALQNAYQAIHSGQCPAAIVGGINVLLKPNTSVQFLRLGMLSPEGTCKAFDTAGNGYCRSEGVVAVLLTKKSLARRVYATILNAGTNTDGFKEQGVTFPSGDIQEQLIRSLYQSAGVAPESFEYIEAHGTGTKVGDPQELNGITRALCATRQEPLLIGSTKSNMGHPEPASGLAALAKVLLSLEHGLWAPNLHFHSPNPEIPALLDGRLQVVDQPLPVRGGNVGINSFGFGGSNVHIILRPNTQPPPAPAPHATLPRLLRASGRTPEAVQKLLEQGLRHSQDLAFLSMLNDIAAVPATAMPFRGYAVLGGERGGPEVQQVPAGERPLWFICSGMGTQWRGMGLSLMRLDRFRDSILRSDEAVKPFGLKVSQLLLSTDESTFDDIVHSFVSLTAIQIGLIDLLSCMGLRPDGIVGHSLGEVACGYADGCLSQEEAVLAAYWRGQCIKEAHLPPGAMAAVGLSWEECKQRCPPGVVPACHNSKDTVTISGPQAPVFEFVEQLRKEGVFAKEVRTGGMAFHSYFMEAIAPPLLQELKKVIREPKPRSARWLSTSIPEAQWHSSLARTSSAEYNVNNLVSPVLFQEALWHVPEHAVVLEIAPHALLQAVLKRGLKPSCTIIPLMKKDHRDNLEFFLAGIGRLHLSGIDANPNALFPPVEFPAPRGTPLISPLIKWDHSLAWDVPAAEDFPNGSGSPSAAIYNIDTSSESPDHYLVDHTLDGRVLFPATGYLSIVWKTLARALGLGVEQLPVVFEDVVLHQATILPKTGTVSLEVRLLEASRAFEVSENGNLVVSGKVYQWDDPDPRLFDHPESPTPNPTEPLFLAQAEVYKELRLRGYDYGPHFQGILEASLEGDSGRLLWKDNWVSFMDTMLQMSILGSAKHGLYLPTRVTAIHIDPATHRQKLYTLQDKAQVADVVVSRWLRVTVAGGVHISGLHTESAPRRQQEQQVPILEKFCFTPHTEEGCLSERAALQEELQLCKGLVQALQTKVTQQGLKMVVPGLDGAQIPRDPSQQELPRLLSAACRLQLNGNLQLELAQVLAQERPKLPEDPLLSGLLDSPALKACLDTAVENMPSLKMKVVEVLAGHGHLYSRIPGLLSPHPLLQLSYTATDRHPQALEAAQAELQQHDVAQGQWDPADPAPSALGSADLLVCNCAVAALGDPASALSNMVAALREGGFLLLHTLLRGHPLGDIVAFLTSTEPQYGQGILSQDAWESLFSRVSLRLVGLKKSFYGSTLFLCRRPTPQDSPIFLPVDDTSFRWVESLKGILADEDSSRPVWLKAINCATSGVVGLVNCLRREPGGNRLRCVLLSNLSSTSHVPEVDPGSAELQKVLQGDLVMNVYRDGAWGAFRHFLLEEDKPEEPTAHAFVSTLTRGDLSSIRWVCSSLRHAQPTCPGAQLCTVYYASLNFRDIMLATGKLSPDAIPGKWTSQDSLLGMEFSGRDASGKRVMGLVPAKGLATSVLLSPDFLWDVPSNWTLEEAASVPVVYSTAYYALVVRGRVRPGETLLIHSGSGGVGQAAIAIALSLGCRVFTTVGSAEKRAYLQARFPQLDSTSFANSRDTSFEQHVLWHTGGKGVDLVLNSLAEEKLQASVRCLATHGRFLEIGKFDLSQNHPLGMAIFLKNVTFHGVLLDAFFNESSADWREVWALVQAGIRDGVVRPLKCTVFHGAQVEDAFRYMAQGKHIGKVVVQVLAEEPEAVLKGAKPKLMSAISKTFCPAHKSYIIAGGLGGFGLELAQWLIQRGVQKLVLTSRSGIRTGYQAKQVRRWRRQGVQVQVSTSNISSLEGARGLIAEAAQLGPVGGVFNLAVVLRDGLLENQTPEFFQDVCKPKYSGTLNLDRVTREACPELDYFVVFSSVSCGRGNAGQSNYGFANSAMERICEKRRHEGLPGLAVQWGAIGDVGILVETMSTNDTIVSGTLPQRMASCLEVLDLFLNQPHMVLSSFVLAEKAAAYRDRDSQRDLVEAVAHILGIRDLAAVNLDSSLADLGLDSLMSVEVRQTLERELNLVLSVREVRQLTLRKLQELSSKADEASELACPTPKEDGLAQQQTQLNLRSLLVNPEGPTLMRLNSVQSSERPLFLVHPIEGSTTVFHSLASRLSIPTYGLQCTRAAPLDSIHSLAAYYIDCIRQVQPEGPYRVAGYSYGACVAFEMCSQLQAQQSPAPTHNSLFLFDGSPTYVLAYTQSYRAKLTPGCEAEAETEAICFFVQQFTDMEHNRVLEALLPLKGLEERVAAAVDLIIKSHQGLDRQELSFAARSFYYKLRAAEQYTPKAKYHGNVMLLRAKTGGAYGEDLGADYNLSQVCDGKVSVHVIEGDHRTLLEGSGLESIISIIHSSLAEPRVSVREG

Turning to `CC1CCCCN1C(=O)COC(=O)c1cc([N+](=O)[O-])ccc1N1CCOCC1` (stereo unspecified), the IC50 was 10.9 µM (active) on Fatty acid synthase [1] and 9.09 µM (active) on Fatty acid synthase [2].
Regarding `CCn1c(S)nnc1CC(C)C`, the AC50 at Cytochrome P450 1A2 was 22.4 µM (inconclusive). Further, the EC50 in [3] was > 260 µM (inactive).
With `CC(=O)Nc1ccc(N/C=C/C(=O)C(C)(C)C)cc1`, the EC50 in experiment [3] was > 260 µM (inactive).
As to `CC1CCCN(S(=O)(=O)c2ccc(NC(=O)Cc3ccc(S(=O)(=O)N4CCOCC4)s3)cc2)C1` (stereo unspecified), the IC50 at Fatty acid synthase [1] is 9.35 µM (active); at Fatty acid synthase [2] it was 7.85 µM (active).
Regarding `CC(=O)c1ccc(N2CCN(S(=O)(=O)c3ccc(-c4cnc(C5CC5)o4)cc3)CC2)cc1`, the AC50 in [4] was 5.95 µM (active); in [5], 38.7 µM (active); in experiment [6], 20.8 µM (active). For the same molecule, the IC50 was 11.6 µM (active) on Fatty acid synthase [1] and 24.4 µM (inactive) on Fatty acid synthase [2].
For the molecule `COC(=O)CCC(=O)COc1ccc(OC)cc1C#N`, in experiment [3], the EC50 was 105 µM (active).
For `O=C(NCCCc1ccccc1)c1cc([N+](=O)[O-])ccc1Cl`, the values for the IC50 on Fatty acid synthase [1] and at Fatty acid synthase [2] were 3.28 µM (active) and 1.1 µM (active), respectively.
On to `O=C(c1ccc(Cl)c(S(=O)(=O)NCc2ccco2)c1)N1CCN(c2ccccc2F)CC1`, for which, in experiment [3], the EC50 is > 260 µM (inactive).
Still for that read-out and setting: the result for `COc1ccc(Cl)cc1N(CC(=O)Nc1ccccc1SC)S(C)(=O)=O` reads > 260 µM (inactive).
Take `Cc1cc(C(c2ccc(O)cc2)c2cc(C)c(O)cc2C)c(C)cc1O`: the 50% effective concentration (EC50) at Protein RecA was 100 µM (active). In addition, the AC50 in experiment [7] was 4.7 µM (active). Moreover, in [8], the CC50 was 20 µM (active).
In the case of `CC(C)CCNC(=O)C1CC(c2cccc([N+](=O)[O-])c2)=NO1` (stereo unspecified), the IC50 is 11 µM (active) at Fatty acid synthase [1] and 8.3 µM (active) on Fatty acid synthase [2].
For `C=CC[n+]1c(-c2ccc(OC)cc2)csc1NNC(=O)Nc1ccccc1`, the EC50 in [3] was > 260 µM (inactive).
`COc1ccc(N/C=C(\C=C\C#N)S(=O)(=O)c2ccccc2)cc1`: the EC50 in experiment [3] was > 260 µM (inactive).
For `O=C(COC(=O)c1cc([N+](=O)[O-])ccc1N1CCOCC1)NC1CCCCC1`, the IC50 at Fatty acid synthase [1] was 0.266 µM (active); on Fatty acid synthase [2] it was 0.321 µM (active).
Regarding `COc1ccccc1/C=C/C(=O)c1cc(Br)ccc1OC(=O)c1ccco1`, in [3], the EC50 is 20.5 µM (active).
As for `N#C/C(=C\c1cccc(NC(=O)c2ccccc2Cl)c1)C(=O)NCCc1ccccc1`, the values for the EC50 (in [9]; at Protein RecA; in experiment [10]) were 14.4 µM (active), 11.2 µM (active) and 15.1 µM (active), respectively. The AC50 in [7] is 8.73 µM (active). Moreover, the cytotoxic concentration (CC50) in [8] is 15.6 µM (active).
For `CCOC(=O)C1CCN(C(=O)c2cc3cc4ccc(C)cc4nc3o2)CC1`, the IC50 is 12.2 µM (active) at Fatty acid synthase [1] and 11.3 µM (active) on Fatty acid synthase [2].
`N#CC1(NC(=O)COC(=O)c2cc([N+](=O)[O-])ccc2N2CCCC2)CCCCC1`: the IC50 on Fatty acid synthase [1] was 5.51 µM (active); on Fatty acid synthase [2] it was 7.64 µM (active).
For the molecule `N#CC1=C(N)Oc2[nH]nc(-c3cccs3)c2C1c1ccsc1` (stereo unspecified), the EC50 on Protein RecA was 0.672 µM (active). In addition, the AC50 in experiment [7] was 2.2 µM (active).
Regarding `CCOC(=O)c1c(C)n(-c2ccc(C)cc2)c2c(CC(C)=O)c(Br)c(OC)c(O)c12`, the EC50 in experiment [3] was > 260 µM (inactive).
In the case of `CN(Cc1ccccc1)c1nc(N)c([N+](=O)[O-])c(NCc2ccccc2)n1`, the EC50 in experiment [3] was > 260 µM (inactive).
Turning to `O=C(Oc1ccc(Br)cc1)C1CC(=O)N(c2ccc(F)cc2)C1` (stereo unspecified), the EC50 at Protein RecA is 11.8 µM (active). In [7], the AC50 was 7.12 µM (active).
On the same counts, the results for `CCCc1nn(C)c2c1C(c1cccnc1)C(C#N)=C(N)O2` (stereo unspecified) are 3.83 µM (active) and 6.1 µM (active).
Turning to `COc1ccc(C(c2nnnn2-c2c(C)cccc2C)N2CCC(n3c(O)nc4ccccc43)CC2)cc1` (stereo unspecified), the half-inhibitory concentration (IC50) on Fatty acid synthase [1] is 16 µM (active); at Fatty acid synthase [2], 16.5 µM (active).
For the molecule `COc1cccc(Sc2ccccc2/C=N/NC(N)=O)c1`, the EC50 in experiment [3] is > 260 µM (inactive).
As for `O=C(CN1C(=O)c2cccc([N+](=O)[O-])c2C1=O)N1CCc2ccccc2C1`, the IC50 at Fatty acid synthase [1] was 9.41 µM (active).
With `C/C(CC(=O)N1CCN(C=O)CC1)=N\NC(=O)c1cccc([N+](=O)[O-])c1`, the EC50 on Protein RecA was 1.99 µM (active). Besides, the AC50 in experiment [7] is 24.7 µM (active).
Take `Cc1cccc(/C=N\NC(=O)c2csnn2)c1`: the EC50 in experiment [3] was > 260 µM (inconclusive).

These data come from ChEMBL document CHEMBL1201862, “PubChem BioAssay data set” (2004).
